Experimental data: PubChem BioAssay (NCI)
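Grown in 96-well plates, cells were treated for 48 hours with each compound at five concentrations. Insufficient inhibition: endpoint recorded as highest concentration tested. TGI marks complete inhibition of growth.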

Experiments:
Test in all cases: DTP human tumour cell line panel, 48 h
786-0 renal = test system: 786-0 renal
DU-145 prostate = test system: DU-145 prostate
HOP-62 NSCLC = test system: HOP-62 NSCLC
HS 578T breast = test system: HS 578T breast
KM12 colon = test system: KM12 colon
M14 melanoma = test system: M14 melanoma
SK-OV-3 ovarian = test system: SK-OV-3 ovarian
MALME-3M melanoma = test system: MALME-3M melanoma
MOLT-4 leukemia = test system: MOLT-4 leukemia
NCI-H522 lung = test system: NCI-H522 lung

Row | Structure (SMILES) | TGI (786-0 renal) [µM] | TGI (DU-145 prostate) [µM] | TGI (HOP-62 NSCLC) [µM] | TGI (HS 578T breast) [µM] | TGI (KM12 colon) [µM] | TGI (M14 melanoma) [µM] | TGI (SK-OV-3 ovarian) [µM] | TGI (MALME-3M melanoma) [µM] | TGI (MOLT-4 leukemia) [µM] | TGI (NCI-H522 lung) [µM]
1 | CC1(C)C(CCO)CC1n1ccc(=O)[nH]c1=O (stereo unspecified) | > 100 | > 100 | > 100 | > 100 | > 100 | > 100 | > 100 | – | – | –
2 | COc1cccc(/C(Cl)=C(\C=O)c2cccc(OC)c2)c1 | 38 | – | 30.1 | – | 26.3 | 26.1 | 41.7 | 12.8 | 78.3 | 11.4
3 | CCOC(=O)C(C)Sc1nnc(COc2ccccc2OC)n1-c1ccccc1 (stereo unspecified) | > 100 | – | > 100 | – | > 100 | > 100 | > 100 | > 100 | – | > 100
4 | CN1CN(c2ccccc2)C2(CCN(CCCCCCF)CC2)C1=O | > 100 | > 100 | 93.3 | – | > 100 | > 100 | > 100 | > 100 | > 100 | > 100
5 | O=c1c2ccccc2nc(-c2ccccc2)n1NC(=S)Nc1ccc(Cl)cc1 | > 100 | – | > 100 | – | > 100 | > 100 | > 100 | > 100 | > 100 | > 100
6 | Cc1cc(NC(=O)C2C3C=CC(O3)C2C(=O)O)no1 (stereo unspecified) | 34.9 | – | > 100 | – | – | > 100 | > 100 | > 100 | > 100 | > 100
7 | COC(=O)[C@@](C)(COC(=O)C(C)(C)C)NC(=O)OC(C)(C)C | > 100 | > 100 | > 100 | – | > 100 | > 100 | > 100 | > 100 | > 100 | > 100
8 | Cc1cccc2c1c1ccc3c(c1n2C)C(=O)C=CC3=O | 3.64 | – | 37.8 | – | 28.6 | 17.9 | 37.3 | 14 | 2.99 | 2.97
9 | Cc1cc(C)nc(/C(=N\NC(N)=O)C(=O)Nc2nc3ccc(C)cc3s2)c1 | > 100 | – | > 100 | – | > 100 | > 100 | > 100 | > 100 | > 100 | > 100
